Laboratory results from patent US4622293A, “Iodothyronine immunoassays employing HMS as TBP blocking agent” (Miles Laboratories, Inc., priority 1983, dated 1986).

Key:
apo(glucose oxidase) = apo(glucose oxidase) (Aspergillus niger, UniProt P13006); experiment: Effect of HMS on the activation of apo(glucose oxidase) by an FAD-labeled thyroxine conjugate; assay type: biochemical; conditions: 37° C, pH 6.5, five minute incubation, read-out: % Activity (absorbance at 520 nm as percentage of that with no HMS)
apo(glucose oxidase), sequence (P13006 17-605): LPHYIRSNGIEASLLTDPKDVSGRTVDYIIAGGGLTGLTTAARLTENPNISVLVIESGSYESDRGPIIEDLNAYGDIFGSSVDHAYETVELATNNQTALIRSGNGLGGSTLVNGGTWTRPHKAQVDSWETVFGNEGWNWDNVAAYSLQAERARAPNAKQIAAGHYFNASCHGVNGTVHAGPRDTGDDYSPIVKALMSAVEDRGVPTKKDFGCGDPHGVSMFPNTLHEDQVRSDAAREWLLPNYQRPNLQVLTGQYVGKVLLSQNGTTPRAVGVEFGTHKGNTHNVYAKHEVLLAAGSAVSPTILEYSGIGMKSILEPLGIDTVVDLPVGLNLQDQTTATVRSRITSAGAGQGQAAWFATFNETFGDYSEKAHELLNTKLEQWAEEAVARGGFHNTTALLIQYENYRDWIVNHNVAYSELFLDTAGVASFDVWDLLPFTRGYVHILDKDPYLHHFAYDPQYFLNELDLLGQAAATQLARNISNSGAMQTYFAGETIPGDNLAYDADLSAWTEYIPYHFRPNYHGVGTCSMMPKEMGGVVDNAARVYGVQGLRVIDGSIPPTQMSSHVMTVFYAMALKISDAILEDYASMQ
Method: The activation of apoglucose oxidase was set up with different concentrations of HMS and performed at 37° C. Assays containing 50 mM sodium phosphate, pH 6.5, 200 mM glucose, 2.0 mM sodium dichlorohydroxybenzene sulfonate (DHSA), 25 μg/mL peroxidase, various concentrations of HMS and 2.5 nM final concentration of a FAD-thyroxine conjugate (see U.S. Pat. No. 4,213,893) were started by adding apo(glucose oxidase), 4-aminoantipyrine, and anti(glucose oxidase) at final concentrations of 125 nM, 400 μM, and 8 μL/mL respectively. The absorbance at 520 nm was recorded after a five minute incubation. The data are presented in Table 3 as a percentage of the absorbance recorded when no HMS is present.

serum proteins = experiment: Effect of pH on the dissociation of iodothyronine from serum proteins by HMS; assay type: binding; conditions: for % Dissociated: 1.0 mM HMS in MIX solution
Method: Assays were performed in 3 ml polystyrene test tubes in duplicate. A solution (designated "MIX") was prepared containing 27 mL of 0.1 M sodium phosphate, at the stated pH, 73 mL of 21% polyethyleneglycol, 1.0 mM HMS, and 10 micrograms (μg) (40 μL) I-125-thyroxine for each 100 mL. Assay solutions are made up by addition of 50 μL of a serum sample, 0.1 mL of anti(thyroxine) antiserum diluted in 0.1 M sodium phosphate (at the given pH) and 1.0 mL of the MIX solution. Assays are included for maximum binding of label and nonspecific binding.

[1] = Water solubility (statement); assay type: physicochemical
[2] = tested on: human serum proteins (thyroxine binding proteins, TBP); experiment: Dissociation of 125I-thyroxine from human serum proteins by HMS (Sephadex column); conditions: for Percent Dissociated in 5 Minutes / Percent Dissociated in 30 Minutes: pH 6.0, room temperature
Method: Radioactive iodine-labeled thyroxine (^125 I-thyroxine obtained from New England Nuclear, Boston, MA USA) was equilibrated with 3.5 milliliter (mL) of normal human serum for 48 hours at 4° C. Aliquots of this serum [50 microliters (μL)] were added to 450 μL of 0.1 molar (M) sodium phosphate, pH 6.0, containing various concentrations of HMS to give the final concentrations given in Table 1. After 5 or 30 minutes of incubation at room temperature, a 500 μL aliquot was applied to a Sephadex column from a Seralute® thyroxine assay kit (Miles Laboratories, Inc., Ames Division, Elkhart, IN, USA), which has been equilibrated with 0.1 M sodium phosphate, pH 6.0. The total radioactivity applied to the columns was measured and the undissociated material was washed through the column. The columns were counted to determine the percentage of thyroxine dissociated from the serum proteins.

Question: With `COc1cc(O)c(C(=O)c2ccccc2)cc1S(=O)(=O)O` [HMS, 2-hydroxy-4-methoxybenzophenone-5-sulfonic acid] as the molecule, how does the activity at 50 µM (apo(glucose oxidase); HMS 0.05 mM) read?
Answer: 100%

Question: And the activity at 100 µM (apo(glucose oxidase); HMS 0.10 mM)?
Answer: 100%

Question: And the activity at 500 µM (apo(glucose oxidase); HMS 0.50 mM)?
Answer: 99%

Question: And the activity at 1000 µM (apo(glucose oxidase); HMS 1.00 mM)?
Answer: 97%

Question: What about the activity at 5000 µM (apo(glucose oxidase); HMS 5.00 mM) of the same molecule?
Answer: 86%

Question: What about the activity at 10000 µM (apo(glucose oxidase); HMS 10.00 mM) of the same molecule?
Answer: 72%

Question: And the “% Dissociated” value (serum proteins; pH 6.0)?
Answer: 73%

Question: And the “% Dissociated” value (serum proteins; pH 6.5)?
Answer: 73%

Question: And the “% Dissociated” value (serum proteins; pH 7.0)?
Answer: 69%

Question: What about the “% Dissociated” value (serum proteins; pH 7.5) of the same molecule?
Answer: 72%

Question: And the “Effect of pH on the efficiency of dissociation” value (serum proteins; pH range 6.0-7.5)?
Answer: essentially no effect

Question: What about the Water solubility [1] of the same molecule?
Answer: highly water soluble

Question: And the “Percent Dissociated in 5 Minutes” value ([2]; HMS 1 mM)?
Answer: 65%

Question: What about the “Percent Dissociated in 30 Minutes” value ([2]; HMS 1 mM) of the same molecule?
Answer: 73%

Question: And the “Percent Dissociated in 5 Minutes” value ([2]; HMS 2 mM)?
Answer: 74%

Question: What about the “Percent Dissociated in 30 Minutes” value ([2]; HMS 2 mM) of the same molecule?
Answer: 84%

Question: What about the “Percent Dissociated in 5 Minutes” value ([2]; HMS 4 mM) of the same molecule?
Answer: 91%

Question: And the “Percent Dissociated in 30 Minutes” value ([2]; HMS 4 mM)?
Answer: 94%

Question: What about the “Percent Dissociated in 5 Minutes” value ([2]; HMS 6 mM) of the same molecule?
Answer: 93%

Question: And the “Percent Dissociated in 30 Minutes” value ([2]; HMS 6 mM)?
Answer: 95%

Question: And the “Dissociation of TBP-bound iodothyronine” value ([2]; concentration 4 mM)?
Answer: over 90%

Question: And the “Dissociation of TBP-bound iodothyronine” value ([2]; reaction mixture concentration 1 mM, in a few minutes)?
Answer: over 50%
